Reference: patent US12383569B2, “Immunomodulatory oligosaccharides for the treatment of pain” (Intrinsic Medicine, Inc., priority 2019, dated 2025)
≈ marks a conversion by molar mass, not a printed value. Entries after “also recorded” stand apart in the source; their conditions may differ.

Columns and labels:
[1] = test system: acetic acid-induced writhing; experiment: Acetic acid-induced writhing test; assay type: in vivo; details: mice pretreated by oral or intravenous administration prior to acetic acid
[2] = test system: bone marrow derived macrophages; experiment: Pro-inflammatory cytokine expression in primary mouse cells; assay type: cell-based
Source text: (§1) Accordingly, the results with 3′SL translate to primary cells as well as to human macrophages.

[3] = test system: THP-1 monocytic cell line; experiment: Pro-inflammatory cytokine expression in human monocytic cell line; assay type: cell-based; details: human THP-1 monocytic cell line
Source text: as §1

[4] = test system: IL-6 and IL-1β mRNA expression; experiment: Dose-range finding for reduction of IL-6 and IL-1β mRNA expression in stimulated macrophages; assay type: cell-based; details: Macrophage, dose-range finding studies
Source text: A multi-dimensional chromatography approach was used that separates pHMO first by charge and then by size. […] To exclude that the observed effect was due to impurities or contaminations from the isolation process, the results were confirmed with synthetized and commercially available 3′SL. […] Other oligosaccharides like 2′-fucosyllactose (2′FL), where the terminal monosaccharide is fucose instead of sialic acid (see FIG. 1C), had no effect, emphasizing that the anti-inflammatory effect of 3′ SL in macrophages is specific to the structure of 3′SL.

[5] = test system: IL-1β mRNA in RAW 264.7 cells; experiment: IL-1β mRNA expression in LPS-stimulated macrophages (RT-PCR); assay type: cell-based, murine; details: LPS-activated macrophages, single oligosaccharide, 6 hours
Protocol: (§2) RAW246.7 cells were exposed to LPS either alone or in combination with either pooled human milk oligosaccharides (HMOs), or 3′-sialyllactose (3′SL) or 2′-fucosyllactose (2′FL). After 6 hours, IL-6 (A) and IL-1β (B) mRNA levels were measured by RT-PCR and are plotted as mean±standard deviation (n=8) relative the respective mRNA levels in cells that were exposed to LPS alone (**p<0.01; ***p<0.001). HMOs are a group of more than 150 different structurally distinct oligosaccharides and their composition follows a basic structural blueprint (C), containing five monosaccharide building blocks: glucose (dark gray circle), galactose (light gray circle), N-acetylglucosamine (dark gray square), fucose (gray triangle) and sialic acid (gray diamond). 3′SL contains lactose with sialic acid at the terminal end; 2′FL contains lactose with fucose at the terminal end.
(§3) Oligosaccharides Reduce Pro-Inflammatory Cytokine mRNA Expression in Stimulated Macrophages. HMOs were first isolated and purified from pooled human donor milk (pHMO) by using polymixin B affinity chromatography to remove any lipopolysaccharide (LPS) contamination. RAW 264.7 cells, a murine macrophage cell line, were then incubated with LPS (10 ng/mL) and pHMO (500 μg/mL) for 6 hours. RT-PCR was used to measure cytokine mRNA expression. […]

[6] = test system: IL-6 mRNA in RAW 264.7 cells; experiment: IL-6 mRNA expression in LPS-stimulated macrophages (RT-PCR); assay type: cell-based, murine; details: LPS-activated macrophages, single oligosaccharide, 6 hours
Protocol: as §2, §3

[7] = test system: collagen antibody-induced arthritis (CAIA) mouse model; experiment: Collagen antibody-induced arthritis (CAIA) model; assay type: in vivo, BALB/c mice; details: for histology score for cartilage damage / histology score for erosion / histology score for inflammation: hind paws, day 14, scored 0 to 4
Protocol: Next, it was asked whether or not the in vitro results translate to an in vivo model. 3′ SL efficacy in a collagen antibody-induced arthritis (CAIA) model was tested in mice. In the CAIA model, arthritis is induced by systemic administration of a cocktail of monoclonal antibodies that target various regions of collagen type II, which is one of the major constituents of articular cartilage matrix proteins, followed by the administration of endotoxin (LPS) on day 3. The high uptake rate in the CAIA model and the capacity to synchronize the development of arthritis from the time of antibody injection, makes this a relatively straightforward model that is used to address questions of pathogenic mechanisms and to screen candidate therapeutic agents. 8-week old female BALB/c mice were injected with 1.5 mg of Arthrogen-CIA monoclonal antibody cocktail (Chondrex, Inc.).
Three days later, the mice were injected with 25 μg of LPS. Beginning with the time of LPS administration and followed for the next 11 consecutive days, mice were orally gavaged thrice daily with either 3′ SL (20 mg in saline) or saline alone as control. With the tester blinded to the study groups, arthritis in each limb was determined once per day. […] By adding together, the scores of all four limbs, the maximum score per mouse is 28. In addition, a caliper was placed across the ankle joint at the widest point to measure ankle thickness in both hind limbs daily. 14 days after antibody cocktail administration, mice were euthanized, and hind paws collected and processed for histology. H&E—as well as Toluidine blue-stained sections were scored from 0 to 4 for inflammation, bone erosion and cartilage depletion based on a previously validated scoring system.

[8] = CAIA mice, oral gavage 20 mg thrice daily from LPS trigger, vs saline
[9] = oral gavage 20 mg thrice daily, listed as 3′ SL

Row | SMILES | inhibition of writhing [1] | pro-inflammatory cytokine expression [2] | pro-inflammatory cytokine expression [3] | IC50 [4] [µg/mL] | reduction of IL-1β mRNA expression [5] | reduction of IL-6 mRNA expression [6] | Baseline-corrected ankle thickness (paw swelling) [7, 8] | clinical index score 28 [7, 8] | histology score for cartilage damage ([7]; oral gavage 20 mg thrice daily) | histology score for erosion ([7]; oral gavage 20 mg thrice daily) | histology score for inflammation ([7]; oral gavage 20 mg thrice daily) | histology score for cartilage damage [7, 9] | histology score for erosion [7, 9] | histology score for inflammation [7, 9] | adverse effects ([7]; throughout the 14-day study period, CAIA mice, oral gavage 20 mg thrice daily)
1 | CC(=O)N[C@H]1[C@H]([C@H](O)[C@H](O)CO)O[C@@](O[C@H]2[C@@H](O)[C@@H](CO)O[C@@H](O[C@H]3[C@H](O)[C@@H](O)C(O)O[C@@H]3CO)[C@@H]2O)(C(=O)O)C[C@@H]1O (stereo partly drawn) [Sialyllactose] | causes inhibition of writhing | – | – | – | – | – | – | – | – | – | – | – | – | – | –
2 | CC(=O)N[C@H]1C([C@H](O)[C@H](O)CO)O[C@@](O[C@@H]2C(O)[C@H](O[C@@H]3C(CO)O[C@@H](O)C(O)[C@H]3O)OC(CO)[C@@H]2O)(C(=O)O)C[C@H]1O (stereo partly drawn) [3′SL, 3′-sialyllactose] | – | reduced pro-inflammatory cytokine expression | reduced pro-inflammatory cytokine expression | ~15 (≈ 23.7 µM) | most effective; also recorded: reduces | most effective; also recorded: reduces | significantly reduced; also recorded: reduces | significantly reduced; also recorded: reduces | significantly lower | significantly lower | significantly lower | significantly reduced | significantly reduced | significantly reduced | No adverse effects
